Results: patent publication US11084795B2, “CFTR regulators and methods of use thereof” (The Regents of the University of California, priority 2015, dated 2021)
Like-named read-outs stand apart in the source and are kept apart here.

Molecular target: human wildtype CFTR (Homo sapiens, UniProt P13569)
Test: Fluorescence plate reader assay of iodide influx in FRT cells co-expressing CFTR and YFP halide sensor
[1] = read-out: EC50, variation in the 3-aryl ring, plate reader assay
[2] = read-out: EC50, variation in the N1-substituent, plate reader assay
[3] = read-out: EC50, variation in the quinoxalinone core, plate reader assay

Sequence of human wildtype CFTR (P13569 whole entry): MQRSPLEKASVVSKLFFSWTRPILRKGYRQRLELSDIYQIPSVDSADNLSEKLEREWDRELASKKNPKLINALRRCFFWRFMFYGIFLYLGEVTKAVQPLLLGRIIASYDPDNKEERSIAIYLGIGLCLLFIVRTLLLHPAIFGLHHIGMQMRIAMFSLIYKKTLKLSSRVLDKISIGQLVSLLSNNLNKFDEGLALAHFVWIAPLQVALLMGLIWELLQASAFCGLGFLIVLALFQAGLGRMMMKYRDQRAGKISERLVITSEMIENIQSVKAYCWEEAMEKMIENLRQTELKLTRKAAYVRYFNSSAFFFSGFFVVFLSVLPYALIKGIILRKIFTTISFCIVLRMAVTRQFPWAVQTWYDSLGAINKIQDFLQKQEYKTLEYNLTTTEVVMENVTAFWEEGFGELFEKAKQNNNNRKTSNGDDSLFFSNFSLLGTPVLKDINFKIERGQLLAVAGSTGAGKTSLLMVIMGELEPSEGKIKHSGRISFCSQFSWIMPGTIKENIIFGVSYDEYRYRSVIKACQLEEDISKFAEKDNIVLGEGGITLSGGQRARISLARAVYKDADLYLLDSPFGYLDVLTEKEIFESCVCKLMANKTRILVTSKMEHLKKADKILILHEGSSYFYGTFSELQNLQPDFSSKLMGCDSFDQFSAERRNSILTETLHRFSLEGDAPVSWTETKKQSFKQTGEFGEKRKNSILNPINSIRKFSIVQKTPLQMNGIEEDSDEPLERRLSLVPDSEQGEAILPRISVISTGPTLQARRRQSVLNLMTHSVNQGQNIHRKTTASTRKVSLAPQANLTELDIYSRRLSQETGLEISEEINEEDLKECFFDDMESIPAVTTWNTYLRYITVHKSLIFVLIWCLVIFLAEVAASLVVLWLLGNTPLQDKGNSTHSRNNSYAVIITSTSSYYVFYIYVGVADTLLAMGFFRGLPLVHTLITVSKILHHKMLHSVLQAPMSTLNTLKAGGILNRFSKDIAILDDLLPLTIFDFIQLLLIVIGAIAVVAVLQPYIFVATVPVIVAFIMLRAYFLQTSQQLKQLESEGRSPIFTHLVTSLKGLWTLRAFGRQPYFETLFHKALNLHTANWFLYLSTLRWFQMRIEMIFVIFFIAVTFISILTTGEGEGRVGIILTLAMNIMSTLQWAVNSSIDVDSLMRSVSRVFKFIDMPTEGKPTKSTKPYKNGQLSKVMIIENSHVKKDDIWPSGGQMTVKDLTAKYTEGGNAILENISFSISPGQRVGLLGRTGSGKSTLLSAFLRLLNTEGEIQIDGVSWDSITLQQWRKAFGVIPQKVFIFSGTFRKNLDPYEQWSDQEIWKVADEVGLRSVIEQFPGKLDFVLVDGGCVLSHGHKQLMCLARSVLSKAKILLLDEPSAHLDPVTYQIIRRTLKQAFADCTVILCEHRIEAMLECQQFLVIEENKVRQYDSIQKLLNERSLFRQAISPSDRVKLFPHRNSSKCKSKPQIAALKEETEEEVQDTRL

SMILES	EC50 [nM]	also measured
CC(=O)Nc1ccccc1-c1nc2ccccc2n(CCc2ccccc2)c1=O [CFTRact-J061]	~20000	
Cn1c(=O)c(-c2cc([N+](=O)[O-])ccc2N)nc2ccccc21 [CFTRact-J052]		CFTR activity of commercial analogs relative to CFTRact-J027: greatly reduced activity
Nc1ccc(C(=O)O)cc1-c1nc2ccccc2n(Cc2ccccc2)c1=O [Compound 1k, 4-Amino-3-(4-benzyl-3-oxo-3,4-dihydroquinoxalin-2-yl)benzoic acid]	> 10000	
O=c1c(-c2ccc(F)c([N+](=O)[O-])c2)nc2ccccc2n1Cc1ccccc1 [Compound 1i, 1-Benzyl-3-(4-fluoro-3-nitrophenyl)quinoxalin-2(1H)-one]		EC50 [1]: 690 nM
O=c1c(-c2cccc([N+](=O)[O-])c2)nc2ccccc2n1Cc1ccc2ccccc2c1 [Compound 3g, 1-(Naphthalen-2-ylmethyl)-3-(3-nitrophenyl)quinoxalin-2(1H)-one]		EC50 [2]: 4300 nM
CC(=O)Nc1ccccc1-c1nc2ccccc2n(Cc2cccc(Br)c2)c1=O [CFTRact-J059]	~19000	
Cc1cccc2nc(-c3cccc([N+](=O)[O-])c3)c(=O)n(Cc3ccccc3)c12 [Compound 2h, 1-Benzyl-8-methyl-3-(3-nitrophenyl)quinoxalin-2(1H)-one]	> 10000	
Cc1ccc2c(c1)nc(-c1c(N)cccc1Br)c(=O)n2Cc1ccccc1 [CFTRact-J139, 3-(2-Amino-6-bromophenyl)-1-benzyl-6-methylquinoxalin-2(1H)-one]	650	
O=c1c(-c2cccc([N+](=O)[O-])c2)nc2ccc(Br)cc2n1Cc1ccccc1 [Compound 2e, 1-Benzyl-7-bromo-3-(3-nitrophenyl)quinoxalin-2(1H)-one]		EC50, variation in the quinoxalinone core (plate reader assay): EC50 = Inactive
Nc1ccc([N+](=O)[O-])cc1-c1nc2ccccc2n(Cc2ccc(Br)cc2)c1=O [CFTRact-J102, 3-(2-Amino-5-nitrophenyl)-1-(4-bromobenzyl)quinoxalin-2(1H)-one]	> 25000	
O=c1c(-c2cccc(Br)c2)nc2ccccc2n1Cc1ccccc1 [Compound 1g, 1-Benzyl-3-(3-bromophenyl)quinoxalin-2(1H)-one]		EC50 [1]: 330 nM
O=C(O)c1ccc([N+](=O)[O-])c(-c2nc3ccccc3n(Cc3ccccc3)c2=O)c1 [Compound 1b, 3-(4-Benzyl-3-oxo-3,4-dihydroquinoxalin-2-yl)-4-nitrobenzoic acid]	> 10000	
N#Cc1ccccc1Cn1c(=O)c(-c2cc(I)ccc2N)nc2ccccc21 [CFTRact-J144, 3-(2-Amino-5-iodophenyl)-1-(2-cyanobenzyl)quinoxalin-2(1H)-one]	> 25000	
Cn1c(=O)c(-c2cccc([N+](=O)[O-])c2)nc2ccccc21 [Compound 3b, 1-Methyl-3-(3-nitrophenyl)quinoxalin-2(1H)-one]	> 10000	
Nc1cccc(Br)c1-c1nc2ccccc2n(Cc2ccccc2)c1=O [CFTRact-J142, 3-(2-Amino-6-bromophenyl)-1-benzylquinoxalin-2(1H)-one]	1500	
CCCn1c(=O)c(-c2cccc([N+](=O)[O-])c2)nc2ccccc21 [Compound 3d, 1-Propyl-3-(3-nitrophenyl)quinoxalin-2(1H)-one]		EC50 [2]: 177 nM
C=CCn1c(=O)c(-c2cccc([N+](=O)[O-])c2)nc2ccccc21 [Compound 3e, 1-Allyl-3-(3-nitrophenyl)quinoxalin-2(1H)-one]		EC50 [2]: 55 nM
Cc1ccc2c(c1)nc(-c1cc(F)ccc1N)c(=O)n2Cc1ccccc1 [CFTRact-J140, 3-(2-Amino-5-fluorophenyl)-1-benzyl-6-methylquinoxalin-2(1H)-one]	700	
O=c1c(-c2cccc([N+](=O)[O-])c2)nc2cc(Cl)c(Cl)cc2n1Cc1ccccc1 [Compound 2d, 1-Benzyl-6,7-dichloro-3-(3-nitrophenyl)quinoxalin-2(1H)-one]	> 10000	
Fc1ccc2nc3n(Cc4ccccc4)c4ccc(C(F)(F)F)cc4nc-3c2c1 [Compound 22]	> 10000	
Nc1ccc(I)cc1-c1nc2ccccc2n(Cc2ccccc2[N+](=O)[O-])c1=O [CFTRact-J143, 3-(2-Amino-5-iodophenyl)-1-(2-nitrobenzyl)quinoxalin-2(1H)-one]	> 25000	
O=c1c(-c2cccc([N+](=O)[O-])c2)nc2c(Cl)cccc2n1Cc1ccccc1 [Compound 2c, 1-Benzyl-5-chloro-3-(3-nitrophenyl)quinoxalin-2(1H)-one]		EC50 [3]: 110 nM
O=c1c(-c2cc(Br)ccc2NCc2ccccc2)nc2ccccc2n1Cc1ccccc1 [CFTRact-J056]	~15000	CFTR activity of commercial analogs relative to CFTRact-J027: greatly reduced activity
O=c1c(-c2ccc3nonc3c2)nc2ccccc2n1Cc1ccccc1 [Compound 1m, 3-(Benzo[c][1,2,5]oxadiazol-5-yl)-1-benzylquinoxalin-2(1H)-one]		EC50 [1]: 18 nM
Nc1ccc(F)cc1-c1nc2ccccc2n(Cc2ccccc2)c1=O [CFTRact-J133, 3-(2-Amino-5-fluorophenyl)-1-benzylquinoxalin-2(1H)-one]	790	

SMILES	EC50 [nM]	also measured
Cc1ccc2c(c1)nc(-c1cc(I)ccc1N)c(=O)n2Cc1ccccc1 [CFTRact-J141, 3-(2-Amino-5-iodophenyl)-1-benzyl-6-methylquinoxalin-2(1H)-one]	470	
O=c1c(-c2cccc([N+](=O)[O-])c2)nc2ccccc2n1Cc1ccco1 [Compound 3i, 1-(Furan-2-ylmethyl)-3-(3-nitrophenyl)quinoxalin-2(1H)-one]		EC50 [2]: 20 nM
CC(=O)Nc1ccccc1-c1nc2ccccc2n(Cc2ccccc2)c1=O [CFTRact-J057]	~15000	CFTR activity of commercial analogs relative to CFTRact-J027: greatly reduced activity
O=c1[nH]c2ccccc2nc1-c1cccc([N+](=O)[O-])c1 [Compound 3a, 3-(3-Nitrophenyl)quinoxalin-2(1H)-one]	> 10000	
Nc1ccc([N+](=O)[O-])cc1-c1nc2cccc3c2n(c1=O)C(c1ccccc1)CO3 (centres unmarked) [Compound 20, 6-(2-Amino-5-nitrophenyl)-3-phenyl-2,3-dihydro-5H-[1,4]oxazino[4,3,2-de]quinoxalin-5-one]	> 10000	
O=c1c(-c2cccc([N+](=O)[O-])c2)nc2ccccc2n1Cc1ccccn1 [Compound 3h, 3-(3-Nitrophenyl)-1-(pyridin-2-ylmethyl)quinoxalin-2(1H)-one]		EC50 [2]: 52 nM
O=c1c(-c2cccc([N+](=O)[O-])c2)nc2cc(Br)ccc2n1Cc1ccccc1 [Compound 2f, 1-Benzyl-6-bromo-3-(3-nitrophenyl)quinoxalin-2(1H)-one]		EC50 [3]: 63 nM
CC(=O)Nc1ccc([N+](=O)[O-])cc1-c1nc2ccccc2n(Cc2ccccc2)c1=O [CFTRact-J109, N-(2-(4-Benzyl-3-oxo-3,4-dihydroquinoxalin-2-yl)-4-nitrophenyl)-acetamide]	1500	
CC(=O)Nc1ccc(C)cc1-c1nc2ccccc2n(Cc2ccccc2)c1=O [CFTRact-J060]	> 25000	
Nc1ccc([N+](=O)[O-])cc1-c1nc2cc(Br)ccc2n(Cc2ccccc2)c1=O [CFTRact-J136, 3-(2-Amino-5-nitrophenyl)-1-benzyl-6-bromoquinoxalin-2(1H)-one]	260	
O=c1c(-c2ccccc2)nc2ccccc2n1Cc1ccccc1 [Compound 1h, 1-Benzyl-3-phenylquinoxalin-2(1H)-one]		EC50 [1]: 5000 nM
O=c1c(-c2cccc([N+](=O)[O-])c2)nc2ccc(Cl)cc2n1Cc1ccccc1 [Compound 2a, 1-Benzyl-7-chloro-3-(3-nitrophenyl)quinoxalin-2(1H)-one]		EC50 [3]: 760 nM
Cc1cc2nc(-c3cccc([N+](=O)[O-])c3)c(=O)n(Cc3ccccc3)c2cc1C [Compound 2i, 1-Benzyl-6,7-dimethyl-3-(3-nitrophenyl)quinoxalin-2(1H)-one]	> 10000	
O=c1c(-c2cccc([N+](=O)[O-])c2)nc2cc(Cl)ccc2n1Cc1ccccc1 [Compound 2b, 1-Benzyl-6-chloro-3-(3-nitrophenyl)quinoxalin-2(1H)-one]		EC50 [3]: 70 nM
O=c1c(-c2ccccc2[N+](=O)[O-])nc2ccccc2n1Cc1ccccc1 [Compound 1d, 1-Benzyl-3-(2-nitrophenyl)quinoxalin-2(1H)-one]		EC50 [1]: 1000 nM
CCn1c(=O)c(-c2cccc([N+](=O)[O-])c2)nc2ccccc21 [Compound 3c, 1-Ethyl-3-(3-nitrophenyl)quinoxalin-2(1H)-one]		EC50 [2]: 65 nM
O=c1c(-c2cccc([N+](=O)[O-])c2)nc2ccccc2n1Cc1cccc2ccccc12 [Compound 3f, 1-(Naphthalen-1-ylmethyl)-3-(3-nitrophenyl)quinoxalin-2(1H)-one]		EC50, variation in the N1-substituent (plate reader assay): EC50 = Inactive
O=c1c(-c2ccc(C(F)(F)F)cc2)nc2ccccc2n1Cc1ccccc1 [Compound 1f, 1-Benzyl-3-(4-(trifluoromethyl)phenyl)quinoxalin-2(1H)-one]		EC50 [1]: 1000 nM
O=c1c(-c2cccc([N+](=O)[O-])c2)nc2cc(F)c(F)cc2n1Cc1ccccc1 [Compound 2g, 1-Benzyl-6,7-difluoro-3-(3-nitrophenyl)quinoxalin-2(1H)-one]	> 10000	
Nc1ccc([N+](=O)[O-])cc1-c1nc2cc(F)ccc2n(Cc2ccccc2)c1=O [CFTRact-J105, 3-(2-Amino-5-nitrophenyl)-1-benzyl-6-fluoroquinoxalin-2(1H)-one]	530	
O=c1c(-c2ccc([N+](=O)[O-])cc2)nc2ccccc2n1Cc1ccccc1 [Compound 1e, 1-Benzyl-3-(4-nitrophenyl)quinoxalin-2(1H)-one]		EC50 [1]: 1000 nM
Nc1ccc(Br)cc1-c1nc2ccccc2n(Cc2ccccc2)c1=O [CFTRact-J134, 3-(2-Amino-5-bromophenyl)-1-benzylquinoxalin-2(1H)-one]	310	
Nc1ccc([N+](=O)[O-])cc1-c1nc2ccccc2n(Cc2ccccc2Br)c1=O [CFTRact-J104, 3-(2-Amino-5-nitrophenyl)-1-(2-bromobenzyl)quinoxalin-2(1H)-one]	7300	
Nc1ccc([N+](=O)[O-])cc1-c1nc2ccccc2n(Cc2cccc(Br)c2)c1=O [CFTRact-J103, 3-(2-Amino-5-nitrophenyl)-1-(3-bromobenzyl)quinoxalin-2(1H)-one]	1200	
COC(=O)c1ccc(N)c(-c2nc3ccccc3n(Cc3ccccc3)c2=O)c1 [Compound 1j, Methyl 4-amino-3-(4-benzyl-3-oxo-3,4-dihydroquinoxalin-2-yl)benzoate]	1000	EC50 [1]: 550 nM
